Experimental data published in patent US20090220621A1, “Pharmaceutical compositions of a non-enteric coated proton pump inhibitor with a carbonate salt and bicarbonate salt combination” (priority 2000, published 2009).
Where “and” joins values, the source holds several entries; their conditions need not be identical. Equal entries are not always repeated.

Legend:
Assay type in all cases: physicochemical
[1] = Titration of simulated gastric fluid with acid neutralizer solution (gastric acid neutralizing capacity); conditions: 50 mL SGF
Procedure: To determine and compare the gastric acid neutralizing capacity of sodium bicarbonate solution to carbicarb solution, the following experiment was performed.
(§1) Aqueous solutions to be tested were made up from starting materials sodium carbonate, (anhydrous, available from Mallinckrodt) and sodium bicarbonate (available from Mallinckrodt). An 8.4% sodium bicarbonate solution and an 8.4% carbicarb solution (containing equimolar amounts of sodium bicarbonate and sodium carbonate) were tested as follows.
50 mL simulated gastric fluid (SGF, prepared according to the procedure described in Example 1) was pipetted into an Erlenmeyer flask. Four drops of methyl red, then four drops of phenolphthalein were then added to the flask. The pH of solution was monitored with a pH electrode. The solution to be tested was added to a 5-mL buret. The gastric media in the flask was then titrated with the test solution to an endpoint within 0.2 pH units of pH 6.5 (as indicated by the color change and pH reading). Then, titration was resumed, to an endpoint within 0.2 pH units of pH 8.0 (as indicated by the color change and pH reading).

[2] = Gas and CO2 generated by neutralization of simulated gastric fluid (Orsat apparatus, standard CO2 assay)
Description: To quantify the gas produced by the neutralization of simulated gastric fluid ([…]) by carbicarb and by sodium bicarbonate in vitro, a standard CO2 assay technique was utilized (see USP 24-NF 19 Beta, The United States Pharmacopeia 2000, p. 306)
as §1
The specimen gas was generated by reacting either 450 mL simulated gastric fluid (SGF) with 50 mL of the carbicarb solution; or by reacting 45 ml of simulated gastric fluid with 5 ml of sodium bicarbonate solution in a 500 mL Erlenmeyer flask.
To make Simulated Gastric Fluid (SGF) 1 g sodium chloride was transferred to a 500-mL volumetric flask. After adding 1.6 g pepsin, 25 mL 2 N hydrochloric acid was added and swirled to mix. The resultant solution could then be diluted to the appropriate volume with water.
The amount of gas generated in a twenty-minute time period was measured in an Orsat Glass Vapor Absorption Apparatus, by the standard assay technique. Two tests were run for each solution. The volume of CO2 generated was calculated from the difference in the initial volume of gas produced (ml) and the final volume of gas remaining (ml).

[3] = Stability of lansoprazole in simulated gastric fluid with and without carbicarb (chromatographic assay); conditions: for % labeled amount of lansoprazole remaining: Sample in water; for % of the drug degraded: at 60 minutes in SGF
Procedure: Lansoprazole degrades in acid and is stable in base. This study was performed to determine 1) how quickly lansoprazole degrades in simulated gastric fluid (SGF); and 2) whether a high pH-buffering agent (carbicarb which is an equimolar mixture of sodium carbonate and sodium bicarbonate) could be used to retard the degradation of lansoprazole in SGF. All the experiments were conducted at room temperature (22° C.±2° C.).
The PPI test sample included lansoprazole (30 mg); mannitol (60 mg), meglumine (30 mg) and sodium hydroxide (3 mg).
Then 5.0 mL 2 N sodium hydroxide solution was added to the 0-minutes beaker with mixing. To each of the 5 remaining beakers, 10.0 mL of 8.4% carbicarb solution was added and stirred to mix. At the appropriate time interval (corresponding to the individual beaker numbers), 5.0 mL 2 N sodium hydroxide solution was added to stop the reaction. A portion of the resulting solution was diluted with pH 10 diluent. 10 μL of the resulting solution was then injected into the chromatographic system for assay.
Granular formulations of lansoprazole, including carbicarb were also made and tested. The stability of the granular formulations was tested according to the procedure of Example 3. The granular formulations of lansoprazole for this example were prepared as follows.
The coherent mass containing lansoprazole, carbicarb, lactose and sucrose solution was prepared as described above, in Example 3. This coherent mass was passed through a 20-mesh screen and the resulting granules were dried at 50° C. for 12 hours. Granules containing 30-mg lansoprazole were transferred to an amber color container along with and an equal weight of flavor granules. 10 ml of water ((HPLC grade, Fisher Scientific, Pittsburgh, Pa.) was added to the container with gentle shaking to reconstitute the suspension. The resulting suspension of lansoprazole was tested for stability in simulated gastric fluid as described earlier in Experiment 3.

[4] = 450 mL SGF and 50 mL test solution, ten times the 45 mL/5 mL values

Compound: O=C([O-])O.[Na+] [8.4% sodium bicarbonate solution, sodium bicarbonate]
- Volume of Acid Neutralizer Solution Required ([1]; pH after adding neutralizer 7.0): 5.00 mL
- Volume of Acid Neutralizer Solution Required ([1]; pH after adding neutralizer 8.0): 6.20 mL
- Volume of Acid Neutralizer Solution Required ([1]; pH of simulated gastric fluid after adding neutralizer 1.2): 0 mL
- Volume of CO2 ([2]; 45 mL SGF and 5 mL test solution, initial minus residual gas volume): 2.9 mL and 5.3 mL
- Initial Gas Volume [2, 4]: 930.0 mL and 820.0 mL
- Volume of CO2 [2, 4]: 29.0 mL and 53.0 mL

Compound: Cc1c(OCC(F)(F)F)ccnc1C[S+]([O-])c1nc2ccccc2[nH]1 (centres unmarked) [lansoprazole]
- % labeled amount of lansoprazole remaining ([3]; time in SGF 30 minutes): 4.1%
- % labeled amount of lansoprazole remaining ([3]; time in SGF 45 minutes): 2.7%
- % labeled amount of lansoprazole remaining ([3]; time in SGF 60 minutes): 2.0%
- % of the drug degraded ([3]; constituted with carbicarb solution): 3.5%
- % of the drug degraded ([3]; reconstituted with water): 98%
